Experimental data taken from patent publication US20240000772A1, “MICROSPHERE FORMULATIONS COMPRISING NALTREXONE AND METHODS FOR MAKING AND USING THE SAME” (Oakwood Laboratories, LLC, priority 2021, published 2024).
Values after ≈ are worked out from the molar mass of the structure shown. Structures can show the parent of a compound that is named as a salt. Where two headings read alike, the source gives them in different places.

Columns and labels:
[1] = Solubility of naltrexone in solvents; type: physicochemical
Description: (§1) In one aspect, the naltrexone is a free base.
In another aspect, the naltrexone is an HCl salt.

pKa of naltrexone = type: physicochemical
Description: as §1

| SMILES | solubility ([1]; naltrexone HCl salt, in water, read-out: water solubility) | pKa (pKa of naltrexone) | solubility ([1]; benzyl alcohol, organic solvent or mixture, naltrexone free base, in BA, read-out: benzyl alcohol (BA) solubility) | solubility ([1]; dichloromethane, organic solvent or mixture, naltrexone free base, in DCM, read-out: dichloromethane (DCM) solubility) | solubility ([1]; ethyl acetate, organic solvent or mixture, naltrexone free base, in EA, read-out: ethyl acetate (EA) solubility) |
| --- | --- | --- | --- | --- | --- |
| O=C1CC[C@@]2(O)[C@H]3Cc4ccc(O)c5c4[C@@]2(CCN3CC2CC2)[C@H]1O5 [naltrexone HCl salt] | ~100 mg/mL |  |  |  |  |
| O=C1CC[C@@]2(O)[C@H]3Cc4ccc(O)c5c4[C@@]2(CCN3CC2CC2)[C@H]1O5 [naltrexone, Naltrexone] |  | 8.4 | > 250 mg/mL | 100 mg/mL (≈ 293 mM) | 26 mg/mL (≈ 76.2 mM) |
